Among the data in the CATMoS acute toxicity set (Mansouri et al. 2021) are GHS category values, retold here.

This series in a line: GHS categories as the set defines them, by LD50: 1 up to 5, 2 up to 50, 3 up to 300, 4 up to 2000, 5 above 2000 mg/kg. To be noted: rat; in vivo; po. From the text:
[…]The data set underlying the modeling effort for this project was initially compiled by NICEATM and U.S. EPA’s CCTE. Briefly, LD50 data were collected from rat acute oral systemic toxicity tests, including limit tests, ranges/confidence intervals, and discrete LD50 values. The full data set included 21,200 LD50 entries for 15,688 substances. […] Data were reviewed to ensure that LD50 values with obvious errors in the extracted data such as unit conversion errors (e.g., comma and decimal separator misplacements) were either fixed or removed. After this review, 16,209 LD50 values remained. Many of the chemicals represented had multiple LD50 entries, requiring that a single representative value per Chemical Abstracts Service Registry Number (CASRN) identifier be defined to facilitate modeling efforts. Based on ATWG feedback and to define the representative LD50 as a protective value while accounting for the distribution across multiple LD50s, the median of the lowest quartile was computed using only discrete LD50 values (omitting limit test data and range and confidence interval data). A detailed summary of the data compilation is available online on the NICEATM webpage dedicated to the collaborative modeling project (NTP 2020).
[…][…] For categorical designations, limit test and range/confidence interval LD50 data were integrated wherever possible. As such, the number of chemicals with end point values/calls varies across the modeling end points (Table 3) based on whether chemicals had representative LD50 values and/or other data. If a chemical had both, the representative value was used to determine categorical calls rather than limit test data. Some data were useable only for certain end points and categories depending on the thresholds. For example, ranges that spanned multiple hazard categories were considered only for the binary (very toxic/nontoxic) end points and omitted from rendering a determination for hazard category assignment.
[…]The final data set comprising 11,992 chemicals was split into training and evaluation sets […], respectively. This process was performed semirandomly by ordering chemicals based on the five end points (categorical and continuous LD50 values) and partitioning every fourth record into the evaluation set accordingly. This approach was taken to ensure an equivalent distribution of the LD50 values and the different hazard categories between the training and the evaluation sets without supervised sampling of the chemicals based on structures (Figure 1A). The sources of the chemical structures were also kept equivalent between the two sets, with chemical structures obtained from DSSTox, being the highest quality, representing over 75% of each set (Figure 1B).

Molecules are shown by their SMILES.

In the case of `CCCCC(CC)CNc1ccc(NCC(CC)CCCC)c2c1C(=O)c1c(O)ccc(O)c1C2=O` (centres undefined), the GHS category was determined as 5.

Compound `CC(C#N)c1cccc(C(=O)c2ccccc2)c1` (centres undefined) came in with a GHS category of 4.

The compound `CNC(=C[N+](=O)[O-])NCCSCc1ccc(CN(C)C)o1` displayed a GHS category of 5.

`CO/N=C(/C(=O)N[C@@H]1C(=O)N2C(C(=O)O)=C(CSc3cnns3)CS[C@H]12)c1csc(N)n1`: the GHS category stood at 5.

Take `CCC(C)Cl` (centres undefined): the GHS category worked out at 5.

`COc1ccc2[nH]c(C)c(CC(=O)OCC(=O)O)c2c1` displayed a GHS category of 5.

In turn, `CCCCC1COCC(C)C1OC(C)=O` (centres undefined) displayed a GHS category of 5.

`CO[Si](OC)(C1CCCC1)C1CCCC1` had a GHS category of 5.

Consider `Cc1ccc2c(c1)C(=O)C(C)C2` (centres undefined), for which the GHS category came to 5.

For `Cc1nc(N2CCOCC2)sc1C(=O)Nc1ccccc1`, the GHS category was determined as 4.

As to `Cc1nc2ncnn2c(C)c1Cc1ccc(-c2ccccc2-c2nn[nH]n2)cc1`, the GHS category stood at 4.

In turn, `C=CCOC(=O)Nc1nc(N2CC=CCC2)cc2nc(=O)on12` gave a GHS category of 5.

Regarding `CN1CC(c2ccnn2-c2ccccc2)CC2c3cccc4[nH]cc(c34)CC21` (centres undefined), the GHS category was determined as 4.

`CCCCOC(=O)c1ccc(-n2nc(OCCCN(C)C)c3ccccc32)cc1` registered a GHS category of 4.

In the case of `Cc1cc(C2(c3ccc(O)cc3)NC(=O)NC2=O)ccc1O` (centres undefined), the GHS category is reported as 5.

`CC1N=C(c2ccccc2Cl)c2c(ccc(NC(=O)NCCO)c2Br)N(C)C1=O` (centres undefined) displayed a GHS category of 5.

Turning to `COC(=O)c1ccc(CNS(C)(=O)=O)cc1S(=O)(=O)NC(=O)Nc1nc(OC)cc(OC)n1`, the GHS category is 5.

Regarding `Cn1c(=O)oc2cc(C(=O)c3cccs3)ccc21`, the GHS category is 5.

`C/C=C(\C)C(=O)O` yielded a GHS category of 5.

The compound `Cc1ccc(S(=O)(=O)NCCCCCC(=O)O)cc1` showed a GHS category of 5.

Compound `CCCCCCCCC(O)CCO` (centres undefined) returned a GHS category of 5.

Compound `C/C=C(\C)C(=O)OC(C)C` registered a GHS category of 5.

Regarding `CCCC(=O)c1ccc2c(c1)OCC(=O)N2C`, the GHS category came to 5.

`c1ccc2oc(C3(Cn4ccnc4)OCCO3)cc2c1` showed a GHS category of 4.

In turn, `CCCCCCCCCCCCCCCCNP1(=S)OCc2cc([N+](=O)[O-])ccc2O1` (centres undefined) displayed a GHS category of 3.

`CCC(=O)OCC(=O)[C@@]1(OC(=O)CC)[C@@H](C)C[C@H]2[C@@H]3CCC4=CC(=O)C=C[C@]4(C)[C@@]3(Cl)[C@@H](O)C[C@@]21C` registered a GHS category of 5.

In turn, `O=c1[nH]c(=O)n(C2OC(CO)C(O)C2O)cc1C=CBr` (centres undefined) registered a GHS category of 5.

As to `CCCCOC(=O)c1ccccc1N`, the GHS category is 5.

`CCCCCCCCCCCCCCCCCCSSCCCCCCCCCCCCCCCCCC` registered a GHS category of 5.

As for `COC(=O)CCc1cc(-n2nc3ccccc3n2)c(O)c(C(C)(C)C)c1`, the GHS category came out at 5.

The compound `CC(CCc1ccccc1)NC(C)C(O)c1ccc(O)cc1` (centres undefined) showed a GHS category of 5.

Compound `CCC(C)(CCC(C)C)C(=O)OCC1CO1` (centres undefined) registered a GHS category of 5.

Turning to `COC(=O)[C@H]1CCCO1`, the GHS category was found to be 5.

Consider `CCCC(=O)OCC(C)C`, for which the GHS category turned out to be 5.

Consider `CC(C)(C)c1ccc(C(=O)CCCN2CCC(OC(c3ccccc3)c3ccccc3)CC2)cc1`, for which the GHS category stood at 5.

Compound `CN1C(=O)CCc2ccc(OCCCN3CCC(Cc4ccccc4)CC3)cc21` had a GHS category of 4.

For the compound `O=C1c2ccc(Br)cc2C(=O)C1(Br)c1ccc2ccccc2c1` (centres undefined), the GHS category is listed as 5.

`O=C1OC(=O)c2c(Br)c(Br)c(Br)c(Br)c21` came in with a GHS category of 5.

`CCCCC(CC)CN1CN(CC(CC)CCCC)CC(C)(N)C1` (centres undefined) registered a GHS category of 4.

Compound `CC1Oc2cc(C(=O)c3ccc(Cl)cc3)ccc2NC1=O` (centres undefined) registered a GHS category of 5.

For the compound `CC1Oc2cc(C(=O)C=Cc3ccc(O)cc3)ccc2N(C)C1=O` (centres undefined), the GHS category amounted to 5.

Consider `C[Si](C)(C)[Si](C)(C)C`, for which the GHS category is reported as 5.

`CCCCCCCC/C=C\CCCCCCCCCCCCC`: the GHS category is 5.

`CCC(C)C(NC(=O)C(Cc1cnc[nH]1)NC(=O)C(CCSC)NC(=O)C(CS)NC(=O)C(NC(=O)CNC(=O)CNC(=O)C(CC(N)=O)NC(=O)C(CC(C)C)NC(=O)C(CS)NC(=O)C(Cc1ccc(O)cc1)NC(=O)CNC(=O)C(CC(=O)O)NC(=O)C(Cc1ccc(O)cc1)NC(=O)C(CO)NC(=O)C(CO)NC(=O)C1CCCN1C(=O)C(CS)NC(=O)CNC(=O)C1CCCN1C(=O)C(Cc1ccc(O)cc1)NC(=O)C(CO)NC(=O)C(N)CC(N)=O)C(C)C)C(=O)NC(CCC(=O)O)C(=O)NC(CO)C(=O)NC(CC(C)C)C(=O)NC(CC(=O)O)C(=O)NC(CO)C(=O)NC(Cc1ccc(O)cc1)C(=O)NC(C(=O)NC(CS)C(=O)NC(CC(N)=O)C(=O)NC(CS)C(=O)NC(C(=O)NC(C(=O)NCC(=O)NC(Cc1ccc(O)cc1)C(=O)NC(CO)C(=O)NCC(=O)NC(CC(=O)O)C(=O)NC(CCCNC(=N)N)C(=O)NC(CS)C(=O)NC(CCC(N)=O)C(=O)NC(C(=O)NC(CCCNC(=N)N)C(=O)NC(CC(=O)O)C(=O)NC(CC(C)C)C(=O)NC(CCCNC(=N)N)C(=O)NC(Cc1c[nH]c2ccccc12)C(=O)NC(Cc1c[nH]c2ccccc12)C(=O)NC(CCC(=O)O)C(=O)NC(CC(C)C)C(=O)NC(CCCNC(=N)N)C(=O)O)C(C)O)C(C)CC)C(C)C)C(C)O` (centres undefined) came in with a GHS category of 5.

Compound `O=C(c1ccc(Cl)cc1)N1CCN=C1c1ccccc1` returned a GHS category of 4.

As for `C=C(C)C(=O)OCCOCCOCCOCC`, the GHS category came out at 5.

Compound `CCCCc1oc2ccc([N+](=O)[O-])cc2c1C(=O)c1ccc(O)cc1` registered a GHS category of 5.

For the compound `CCOc1ccc(C2(C(=O)OC(C#N)c3cccc(Oc4ccccc4)c3)CC2(Cl)Cl)cc1` (centres undefined), the GHS category came out at 5.

In the case of `CCCNC(=O)c1cnc2ccc(C)cn2c1=O`, the GHS category amounted to 3.

For the compound `FC(F)(F)C(F)(F)C(F)(F)C(F)(F)N(C(F)(F)C(F)(F)C(F)(F)C(F)(F)F)C(F)(F)C(F)(F)C(F)(F)C(F)(F)F`, the GHS category worked out at 5.

`CCCc1c(Cc2ccc(-c3ccccc3-c3nn[nH]n3)cc2)c(NCCN2CCOCC2)nc2ncnn12` gave a GHS category of 4.

`COc1ccccc1OC(=O)Cc1ccc(C(=O)c2ccc(C)cc2)n1C` registered a GHS category of 4.

`COC(=O)c1ccccc1S(=O)(=O)NC(=O)Nc1nc(OC(F)F)cc(OC(F)F)n1` came in with a GHS category of 5.

Consider `COc1ccc(C(=O)Nc2ccccc2)cc1N=Nc1c(O)c(C(=O)Nc2cc(Cl)ccc2OC)cc2ccccc12`, for which the GHS category amounted to 5.

Turning to `Cn1c(=O)c2[nH]c(=O)[nH]c2n(C)c1=O`, the GHS category was found to be 5.

As for `CC(C)CCC[C@@H](C)[C@H]1CC[C@H]2[C@@H]3CC=C4C[C@@H](O)CC[C@]4(C)[C@H]3CC[C@]12C`, the GHS category turned out to be 5.

Turning to `O=CC=Cc1ccco1`, the GHS category is on record as 4.

Compound `CCCCC(CC)C1NC(=O)N(SC(Cl)(Cl)Cl)C1=O` (centres undefined) displayed a GHS category of 4.

Take `CCCN(C=Nc1cccc(=O)[nH]1)CCC`: the GHS category amounted to 5.

In turn, `COC(=O)c1ccc(C(=O)OC)c(N=NC(C(C)=O)C(=O)Nc2ccc(NC(=O)C(N=Nc3cc(C(=O)OC)ccc3C(=O)OC)C(C)=O)cc2)c1` (centres undefined) registered a GHS category of 5.

Take `CCCCNC(=O)CC[C@H](NC(=O)C(CC)CCCC)C(=O)NCCCC` (some centres undefined): the GHS category turned out to be 5.

In turn, `CC(C)(c1ccc(OCC2CO2)cc1)c1ccc(OCC2CO2)cc1` (centres undefined) came in with a GHS category of 4.

Compound `O=S(=O)(O)c1ccc2c(c1)-c1nc-2nc2[nH]c(nc3nc(nc4[nH]c(n1)c1ccc(S(=O)(=O)O)cc41)-c1ccc(S(=O)(=O)O)cc1-3)c1ccc(S(=O)(=O)Nc3ccc(S(=O)(=O)CCO)cc3)cc21` yielded a GHS category of 5.

In turn, `Cc1[nH]nc(C(=O)Nc2cccc(C(F)(F)F)c2)c1Br` gave a GHS category of 5.

With `O=C(Nc1cccc2c(=O)c3c(ccc4c5cc(NC(=O)c6ccccc6)c6c(=O)c7ccccc7c(=O)c6c5[nH]c43)c(=O)c12)c1ccccc1`, the GHS category was 5.

Take `CC(C)=CCCC(C)CCOCC=O` (centres undefined): the GHS category is 5.

Turning to `CCCCCCCC/C=C\CCCCCCCC#N`, the GHS category was 5.

Turning to `CC1Oc2cc(C(=O)c3ccc(Cl)cc3)ccc2N(C)C1=O` (centres undefined), the GHS category stood at 5.

On to `Cc1ccc2oc(C=Cc3nc4cc(C)ccc4o3)nc2c1`, for which the GHS category was found to be 5.

As to `NC(=O)OC[C@@H]1[C@H](NC(=O)/C(=N\OCC(=O)O)c2csc(N)n2)C(=O)N1S(=O)(=O)O`, the GHS category came out at 5.

As for `COc1ccc(N(CCCC(=O)O)C(=O)c2ccc(Cl)cc2)c(OC)c1`, the GHS category is given as 4.

`CCC(C)(C)NC(=O)c1cnc2cccc(C)n2c1=O` registered a GHS category of 3.

As for `CC(C)(C)OP(=O)(O)OC(C)(C)C`, the GHS category was 5.

With `CC(=O)CCCC(C)CCC=C(C)C` (centres undefined), the GHS category turned out to be 5.
